Test results: ChEMBL document CHEMBL5113477, “Membrane acting Povarov-Doebner derived compounds potently disperse preformed multidrug resistant Gram-positive bacterial biofilms” (Eur J Med Chem, 2022)

Tested on: Enterococcus faecalis
Assay: Antibiofilm activity against vancomycin-resistant Enterococcus faecalis ATCC 51575 in TSB broth assessed as dispersal of glucose-induced biofilm at 8 to 16 ug/ml preincubated with glucose for 48 hrs followed by compound addition and measured after 24 hrs by crystal violet staining based analysis
Type: functional
Conditions: dose 8-16 µg/ml, at 8 to 16 µg/mL

`Oc1ccc([C@@H]2Nc3ccc(S(F)(F)(F)(F)F)cc3[C@H]3[C@@H]4CC[C@@H](C4)[C@H]32)cc1` was tested, and the Activity was 70%.
